Measurements from PMC5362750, “Discovery of Potent, Selective, and Orally Bioavailable Small-Molecule Modulators of the Mediator Complex-Associated Kinases CDK8 and CDK19” (Journal of Medicinal Chemistry, 2016).

Key:
ROCK-II = ROCK-II (Homo sapiens, UniProt O75116); assay: Kinase panel (Millipore); type: biochemical; conditions: 1 µM, ATP at Km
GRK7 = GRK7 (Homo sapiens, UniProt Q8WTQ7); assay: Kinase panel (Millipore); type: biochemical; conditions: 1 µM, ATP at Km
MELK = target: T1, MELK (Homo sapiens, UniProt Q14680); assay: Kinase panel (Millipore); type: biochemical; conditions: 1 µM, ATP at Km
T1 construct: purchased Millipore (KinaseProfiler) kinase panel

PKCZETA = target: T2, PKCZETA (Homo sapiens, UniProt Q05513); assay: Kinase panel (Millipore); type: biochemical; conditions: 1 µM, ATP at Km
T2 construct: purchased Millipore (KinaseProfiler) kinase panel

CSK = CSK (Homo sapiens, UniProt P41240); assay: Kinase panel (Millipore); type: biochemical; conditions: 1 µM, ATP at Km
CKIT(D816H) = CKIT(D816H) (Homo sapiens, UniProt P10721, D816H); conditions: 1 µM, ATP at Km
Sequence of CKIT(D816H) (P10721 544-976 D816H limits assumed): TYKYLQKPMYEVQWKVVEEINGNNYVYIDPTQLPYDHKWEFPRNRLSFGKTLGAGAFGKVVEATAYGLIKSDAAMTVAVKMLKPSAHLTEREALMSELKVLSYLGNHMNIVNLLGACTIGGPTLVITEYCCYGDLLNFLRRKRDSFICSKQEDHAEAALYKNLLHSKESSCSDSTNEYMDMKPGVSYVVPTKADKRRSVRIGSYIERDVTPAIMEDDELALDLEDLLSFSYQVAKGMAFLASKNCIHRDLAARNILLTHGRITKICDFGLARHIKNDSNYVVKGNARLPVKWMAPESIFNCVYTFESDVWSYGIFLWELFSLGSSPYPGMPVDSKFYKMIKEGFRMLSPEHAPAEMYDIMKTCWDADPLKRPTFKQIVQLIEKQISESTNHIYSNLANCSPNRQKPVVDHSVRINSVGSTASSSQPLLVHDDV

UT (h) = target: T3, UT (h) (Homo sapiens, UniProt Q9UKP6); assay: CEREP binding assay; conditions: agonist radioligand, read-out: % Inhibition of Control Specific Binding
T3 construct: CEREP
T3 sequence (Q9UKP6 whole entry): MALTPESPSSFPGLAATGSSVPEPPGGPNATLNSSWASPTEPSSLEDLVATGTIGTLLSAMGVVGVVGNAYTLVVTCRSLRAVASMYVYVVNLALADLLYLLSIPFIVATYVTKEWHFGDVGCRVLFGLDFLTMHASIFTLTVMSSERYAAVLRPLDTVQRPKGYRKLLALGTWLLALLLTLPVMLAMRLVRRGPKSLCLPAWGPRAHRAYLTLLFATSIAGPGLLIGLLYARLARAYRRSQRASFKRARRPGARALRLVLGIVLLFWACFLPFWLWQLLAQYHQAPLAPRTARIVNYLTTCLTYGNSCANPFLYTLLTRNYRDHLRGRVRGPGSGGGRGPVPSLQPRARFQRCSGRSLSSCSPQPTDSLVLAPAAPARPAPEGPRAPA

in vivo = conditions: male, rat, 0.2 mg/kg
RET(V804L) = RET(V804L) (Homo sapiens, UniProt P07949, V804L); conditions: 1 µM, ATP at Km
[1] = target: N neuronal alpha 4beta 2 (h) (Homo sapiens, UniProt P17787+P43681); assay: biochemical; conditions: read-out: % Inhibition of Control Specific Binding
Sequence of N neuronal alpha 4beta 2 (h) (P43681 29-627 limits assumed): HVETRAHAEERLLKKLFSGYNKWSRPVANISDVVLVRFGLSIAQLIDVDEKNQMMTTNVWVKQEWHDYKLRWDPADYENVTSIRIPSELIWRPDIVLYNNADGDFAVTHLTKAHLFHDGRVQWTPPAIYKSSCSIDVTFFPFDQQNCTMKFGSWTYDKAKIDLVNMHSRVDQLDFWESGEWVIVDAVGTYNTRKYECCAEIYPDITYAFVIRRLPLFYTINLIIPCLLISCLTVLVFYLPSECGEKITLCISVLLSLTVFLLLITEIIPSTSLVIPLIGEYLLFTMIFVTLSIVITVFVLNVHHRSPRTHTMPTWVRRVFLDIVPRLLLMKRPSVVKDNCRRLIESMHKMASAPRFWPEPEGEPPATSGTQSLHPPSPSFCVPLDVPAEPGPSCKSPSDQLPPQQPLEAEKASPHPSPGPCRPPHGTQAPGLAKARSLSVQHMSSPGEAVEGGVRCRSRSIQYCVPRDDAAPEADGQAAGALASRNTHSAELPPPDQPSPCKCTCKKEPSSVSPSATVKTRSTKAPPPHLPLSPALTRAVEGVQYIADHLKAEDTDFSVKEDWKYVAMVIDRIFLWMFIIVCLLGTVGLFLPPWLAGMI
Sequence of N neuronal alpha 4beta 2 (h) (P17787 26-502): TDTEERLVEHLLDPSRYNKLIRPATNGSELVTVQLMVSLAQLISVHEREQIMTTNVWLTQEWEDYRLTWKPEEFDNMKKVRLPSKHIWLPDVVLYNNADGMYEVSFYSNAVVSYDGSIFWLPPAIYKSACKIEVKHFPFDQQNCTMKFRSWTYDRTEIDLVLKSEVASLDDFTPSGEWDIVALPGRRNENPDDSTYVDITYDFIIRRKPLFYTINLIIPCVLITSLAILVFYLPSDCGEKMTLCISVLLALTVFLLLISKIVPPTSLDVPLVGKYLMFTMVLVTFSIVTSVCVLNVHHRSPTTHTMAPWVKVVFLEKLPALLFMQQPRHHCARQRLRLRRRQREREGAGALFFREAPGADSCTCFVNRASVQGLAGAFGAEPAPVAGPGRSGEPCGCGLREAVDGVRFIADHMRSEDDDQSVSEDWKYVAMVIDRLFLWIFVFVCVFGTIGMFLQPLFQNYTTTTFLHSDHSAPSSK

FP (h) = target: T4, FP (h) (Homo sapiens, UniProt P43088); assay: CEREP binding assay; conditions: agonist radioligand, read-out: % Inhibition of Control Specific Binding
T4 construct: purchased Millipore (KinaseProfiler) kinase panel

MET = target: T5, MET (Homo sapiens, UniProt P08581); assay: Kinase panel (Millipore); type: biochemical; conditions: 1 µM, ATP at Km
T5 construct: purchased Millipore (KinaseProfiler) kinase panel

PI3K BETA = PI3K BETA (Homo sapiens, UniProt P42338); assay: Kinase panel (Millipore); type: biochemical; conditions: 1 µM, ATP at Km
PRKX = target: T6, PRKX (Homo sapiens, UniProt P51817); assay: Kinase panel (Millipore); type: biochemical; conditions: 1 µM, ATP at Km
T6 construct: purchased Millipore (KinaseProfiler) kinase panel

CDK5/P25 = CDK5/P25 (Homo sapiens, UniProt Q00535); conditions: 1 µM, ATP at Km
HIPK2 = target: T7, HIPK2 (Homo sapiens, UniProt Q9H2X6); assay: Kinase panel (Millipore); type: biochemical; conditions: 1 µM, ATP at Km
T7 construct: purchased Millipore (KinaseProfiler) kinase panel

ALK = target: T8, ALK (Homo sapiens, UniProt Q9UM73); assay: Kinase panel (Millipore); type: biochemical; conditions: 1 µM, ATP at Km
T8 construct: purchased Millipore (KinaseProfiler) kinase panel

TRKA = target: T9, TRKA (Homo sapiens, UniProt P04629); assay: Kinase panel (Millipore); type: biochemical; conditions: 1 µM, ATP at Km
T9 construct: purchased Millipore (KinaseProfiler) kinase panel

PAK6 = PAK6 (Homo sapiens, UniProt Q9NQU5); assay: Kinase panel (Millipore); type: biochemical; conditions: 1 µM, ATP at Km
Sequence of PAK6 (Q9NQU5 whole entry): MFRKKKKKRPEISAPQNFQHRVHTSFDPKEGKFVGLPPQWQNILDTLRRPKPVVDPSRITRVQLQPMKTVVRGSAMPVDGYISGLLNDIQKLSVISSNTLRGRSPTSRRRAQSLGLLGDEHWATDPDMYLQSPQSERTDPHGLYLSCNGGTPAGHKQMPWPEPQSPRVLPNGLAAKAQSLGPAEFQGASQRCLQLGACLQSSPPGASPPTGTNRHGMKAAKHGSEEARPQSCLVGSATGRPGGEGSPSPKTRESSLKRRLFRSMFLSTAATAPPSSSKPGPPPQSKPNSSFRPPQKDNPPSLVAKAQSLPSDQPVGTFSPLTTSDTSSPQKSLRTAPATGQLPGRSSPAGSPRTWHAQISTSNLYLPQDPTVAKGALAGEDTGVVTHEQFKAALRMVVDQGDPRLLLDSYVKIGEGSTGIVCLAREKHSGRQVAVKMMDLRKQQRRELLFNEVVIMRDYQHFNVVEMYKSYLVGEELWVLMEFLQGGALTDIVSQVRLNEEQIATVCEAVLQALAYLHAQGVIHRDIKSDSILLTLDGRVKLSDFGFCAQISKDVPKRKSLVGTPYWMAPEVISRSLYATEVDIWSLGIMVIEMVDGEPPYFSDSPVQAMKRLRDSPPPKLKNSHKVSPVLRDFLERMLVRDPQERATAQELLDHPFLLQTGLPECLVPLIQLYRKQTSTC

BTK(R28H) = BTK(R28H) (Homo sapiens, UniProt Q06187, R28H); conditions: 1 µM, ATP at Km
Sequence of BTK(R28H) (Q06187 whole entry R28H): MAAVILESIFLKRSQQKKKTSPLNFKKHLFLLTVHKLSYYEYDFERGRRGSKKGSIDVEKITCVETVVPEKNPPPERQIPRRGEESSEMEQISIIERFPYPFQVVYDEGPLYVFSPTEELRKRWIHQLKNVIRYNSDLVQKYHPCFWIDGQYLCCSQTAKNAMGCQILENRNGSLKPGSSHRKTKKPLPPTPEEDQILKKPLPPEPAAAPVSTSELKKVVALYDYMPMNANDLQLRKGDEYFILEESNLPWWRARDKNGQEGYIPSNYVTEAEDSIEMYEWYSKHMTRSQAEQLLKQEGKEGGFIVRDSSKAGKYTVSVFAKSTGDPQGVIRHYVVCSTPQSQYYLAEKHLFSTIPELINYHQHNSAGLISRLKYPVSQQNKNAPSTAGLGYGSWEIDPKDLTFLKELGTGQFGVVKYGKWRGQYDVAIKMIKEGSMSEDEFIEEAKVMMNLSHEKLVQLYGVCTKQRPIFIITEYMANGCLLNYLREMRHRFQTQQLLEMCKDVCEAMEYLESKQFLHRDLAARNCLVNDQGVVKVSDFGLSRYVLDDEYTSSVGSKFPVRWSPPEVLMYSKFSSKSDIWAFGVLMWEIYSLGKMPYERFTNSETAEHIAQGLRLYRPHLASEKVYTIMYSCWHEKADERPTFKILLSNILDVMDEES

PIM-3 = PIM-3 (Homo sapiens, UniProt Q86V86); assay: Kinase panel (Millipore); type: biochemical; conditions: 1 µM, ATP at Km
FMS = target: T10, FMS (Homo sapiens, UniProt P07333); assay: Kinase panel (Millipore); type: biochemical; conditions: 1 µM, ATP at Km
T10 construct: purchased Millipore (KinaseProfiler) kinase panel
T10 sequence (P07333 20-972): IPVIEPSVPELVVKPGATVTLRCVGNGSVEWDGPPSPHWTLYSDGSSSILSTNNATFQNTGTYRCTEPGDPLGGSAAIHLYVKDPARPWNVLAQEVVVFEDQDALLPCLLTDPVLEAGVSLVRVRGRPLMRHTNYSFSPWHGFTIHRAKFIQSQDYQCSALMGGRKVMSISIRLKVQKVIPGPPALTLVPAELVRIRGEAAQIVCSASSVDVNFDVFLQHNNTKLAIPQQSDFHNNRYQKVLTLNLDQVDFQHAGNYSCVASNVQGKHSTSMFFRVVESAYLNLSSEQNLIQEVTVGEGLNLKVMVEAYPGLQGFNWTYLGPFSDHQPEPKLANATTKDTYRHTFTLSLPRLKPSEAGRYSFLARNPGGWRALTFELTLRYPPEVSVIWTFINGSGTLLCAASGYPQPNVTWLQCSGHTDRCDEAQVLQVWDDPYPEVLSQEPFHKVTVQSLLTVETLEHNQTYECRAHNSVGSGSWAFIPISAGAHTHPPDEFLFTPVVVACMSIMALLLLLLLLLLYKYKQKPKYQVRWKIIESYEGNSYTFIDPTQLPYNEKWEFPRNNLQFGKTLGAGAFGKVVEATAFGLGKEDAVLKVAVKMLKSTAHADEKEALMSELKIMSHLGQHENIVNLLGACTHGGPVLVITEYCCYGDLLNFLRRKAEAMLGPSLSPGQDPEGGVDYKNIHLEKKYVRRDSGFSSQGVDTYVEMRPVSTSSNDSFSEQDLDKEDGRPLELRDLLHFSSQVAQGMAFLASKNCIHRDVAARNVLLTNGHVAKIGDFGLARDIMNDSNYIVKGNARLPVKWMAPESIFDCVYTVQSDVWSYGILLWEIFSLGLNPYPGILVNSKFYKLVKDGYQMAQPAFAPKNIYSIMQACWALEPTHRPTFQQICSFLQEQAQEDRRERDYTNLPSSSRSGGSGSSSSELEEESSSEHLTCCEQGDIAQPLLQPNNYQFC

5-HT4e (h) = 5-HT4e (h) (Homo sapiens, UniProt Q13639); assay: biochemical; conditions: read-out: % Inhibition of Control Specific Binding
PCP = conditions: 10 µM, antagonist radioligand
D2S (h) = D2S (h) (Homo sapiens, UniProt P14416); assay: biochemical; conditions: read-out: % Inhibition of Control Specific Binding
NEK11 = target: T11, NEK11 (Homo sapiens, UniProt Q8NG66); assay: Kinase panel (Millipore); type: biochemical; conditions: 1 µM, ATP at Km
T11 construct: purchased Millipore (KinaseProfiler) kinase panel

PAK4 = target: T12, PAK4 (Homo sapiens, UniProt O96013); assay: Kinase panel (Millipore); type: biochemical; conditions: 1 µM, ATP at Km
T12 construct: purchased Millipore (KinaseProfiler) kinase panel

CB2 (h) = CB2 (h) (Homo sapiens, UniProt P34972); assay: biochemical; conditions: read-out: % Inhibition of Control Specific Binding
ABL (H396P) = ABL (H396P) (Homo sapiens, UniProt P00519, H396P); conditions: 1 µM, ATP at Km
CDK2/CYCLINA = CDK2/CYCLINA (Homo sapiens, UniProt P24941); conditions: 1 µM, ATP at Km
MAO-A = target: T13, MAO-A (Rattus norvegicus, UniProt P21396); assay: CEREP binding assay; conditions: antagonist radioligand, read-out: % Inhibition of Control Specific Binding
T13 construct: purchased Millipore (KinaseProfiler) kinase panel

JAK2 = target: T14, JAK2 (Homo sapiens, UniProt O60674); assay: Kinase panel (Millipore); type: biochemical; conditions: 1 µM, ATP at Km
T14 construct: purchased Millipore (KinaseProfiler) kinase panel

PLK3 = target: T15, PLK3 (Homo sapiens, UniProt Q9H4B4); assay: Kinase panel (Millipore); type: biochemical; conditions: 1 µM, ATP at Km
T15 construct: purchased Millipore (KinaseProfiler) kinase panel

IKKBETA = target: T16, IKKBETA (Homo sapiens, UniProt O14920); assay: Kinase panel (Millipore); type: biochemical; conditions: 1 µM, ATP at Km
T16 construct: purchased Millipore (KinaseProfiler) kinase panel

MAPKAP-K2 = target: T17, MAPKAP-K2 (Homo sapiens, UniProt P49137); assay: Kinase panel (Millipore); type: biochemical; conditions: 1 µM, ATP at Km
T17 construct: purchased Millipore (KinaseProfiler) kinase panel

TRKB = target: T18, TRKB (Homo sapiens, UniProt Q16620); assay: Kinase panel (Millipore); type: biochemical; conditions: 1 µM, ATP at Km
T18 construct: purchased Millipore (KinaseProfiler) kinase panel

MC3 (h) = target: T19, MC3 (h) (Homo sapiens, UniProt P41968); assay: CEREP binding assay; conditions: agonist radioligand, read-out: % Inhibition of Control Specific Binding
T19 construct: purchased Millipore (KinaseProfiler) kinase panel

HIPK1 = target: T20, HIPK1 (Homo sapiens, UniProt Q86Z02); assay: Kinase panel (Millipore); type: biochemical; conditions: 1 µM, ATP at Km
T20 construct: purchased Millipore (KinaseProfiler) kinase panel

RSK3 = RSK3 (Homo sapiens, UniProt Q15349); assay: Kinase panel (Millipore); type: biochemical; conditions: 1 µM, ATP at Km
TBK1 = target: T21, TBK1 (Homo sapiens, UniProt Q9UHD2); assay: Kinase panel (Millipore); type: biochemical; conditions: 1 µM, ATP at Km
T21 construct: purchased Millipore (KinaseProfiler) kinase panel
T21 sequence (Q9UHD2 whole entry): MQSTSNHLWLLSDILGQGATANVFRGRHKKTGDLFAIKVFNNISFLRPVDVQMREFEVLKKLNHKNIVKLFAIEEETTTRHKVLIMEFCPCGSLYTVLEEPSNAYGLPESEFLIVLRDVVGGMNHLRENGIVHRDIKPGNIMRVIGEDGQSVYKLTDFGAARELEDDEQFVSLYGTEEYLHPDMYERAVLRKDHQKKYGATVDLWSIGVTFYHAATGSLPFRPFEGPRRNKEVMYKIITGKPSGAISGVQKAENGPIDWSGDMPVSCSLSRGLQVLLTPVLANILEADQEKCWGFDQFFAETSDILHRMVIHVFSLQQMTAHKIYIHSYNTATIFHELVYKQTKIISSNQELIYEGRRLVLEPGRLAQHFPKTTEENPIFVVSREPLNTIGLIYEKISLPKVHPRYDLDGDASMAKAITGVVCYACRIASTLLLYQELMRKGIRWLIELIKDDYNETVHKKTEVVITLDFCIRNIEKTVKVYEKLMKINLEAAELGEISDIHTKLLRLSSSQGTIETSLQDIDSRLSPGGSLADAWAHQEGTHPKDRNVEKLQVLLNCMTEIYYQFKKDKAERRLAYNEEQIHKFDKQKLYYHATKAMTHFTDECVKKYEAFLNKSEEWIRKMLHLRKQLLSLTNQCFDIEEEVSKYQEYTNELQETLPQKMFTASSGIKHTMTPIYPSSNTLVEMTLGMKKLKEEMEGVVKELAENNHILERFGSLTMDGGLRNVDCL

EGFR = EGFR (Homo sapiens, UniProt P00533); assay: Kinase panel (Millipore); type: biochemical; conditions: 1 µM, ATP at Km
MARK1 = MARK1 (Homo sapiens, UniProt Q9P0L2); assay: Kinase panel (Millipore); type: biochemical; conditions: 1 µM, ATP at Km
GSK3ALPHA = GSK3ALPHA (Homo sapiens, UniProt P49840); assay: Kinase panel (Millipore); type: biochemical; conditions: 1 µM, ATP at Km

## Cn1ncc2cc(-c3cnc(N)c(Cl)c3N3CCC4(CCNC4=O)CC3)ccc21 [Compound 109, 8-(2-Amino-3-chloro-5-(1-methyl-1H-indazol-5-yl)pyridin-4-yl)-2,8-diazaspiro[4.5]decan-1-one]
ROCK-II
  % effect: -10%
GRK7
  % effect: -1%
MELK
  % effect: 3%
PKCZETA
  % effect: 1%
CSK
  % effect: 8%
CKIT(D816H)
  % effect: 1%
UT (h)
  inhibition at 10 µM: 33%
In vivo
  Vd: 2 L/kg
In vivo; iv
  clearance: 24.8 mL/min/kg
RET(V804L)
  % effect: -7%
[1]
  inhibition at 10 µM: -6%
FP (h)
  inhibition at 10 µM: -1%
MET
  % effect: 1%
PI3K BETA
  % effect: 2%
PRKX
  % effect: -9%
CDK5/P25
  % effect: 13%
HIPK2
  % effect: 2%
ALK
  % effect: 4%
TRKA
  % effect: 2%
PAK6
  % effect: 2%
BTK(R28H)
  % effect: 2%
PIM-3
  % effect: 6%
FMS
  % effect: -23%
5-HT4e (h)
  inhibition at 10 µM: -3%
PCP
  % Inhibition of Control Specific Binding: -1%
D2S (h)
  inhibition at 10 µM: -5%
NEK11
  % effect: 12%
PAK4
  % effect: -1%
CB2 (h)
  inhibition at 10 µM: 29%
ABL (H396P)
  % effect: -4%
CDK2/CYCLINA
  % effect: 1%
MAO-A
  inhibition at 10 µM: 8%
JAK2
  % effect: -20%
PLK3
  % effect: -2%
IKKBETA
  % effect: -2%
MAPKAP-K2
  % effect: 1%
TRKB
  % effect: -11%
MC3 (h)
  inhibition at 10 µM: -24%
HIPK1
  % effect: 5%
RSK3
  % effect: -15%
TBK1
  % effect: 6%
EGFR
  % effect: 4%
MARK1
  % effect: 17%
GSK3ALPHA
  % effect: -18%
